Paper PMC10788915, “Fragment Merging, Growing, and Linking Identify New Trypanothione Reductase Inhibitors for Leishmaniasis” (Journal of Medicinal Chemistry, 2024)
Read-outs that look alike come from different tables or passages of the source.

Tests used:
[1] = tested on: L. infantum axenic amastigotes; test: In vitro inhibition of axenic amastigote growth (MTT); type: cell-based, Leishmania infantum; settings: 72 h, read-out: axenic amastigote EC50 ± SE (95% CI)
Experimental: Axenic amastigote growth inhibition was evaluated using L. infantum strain (MHOM/TN/80/IPT1, WHO international reference strain). Axenic amastigote cultures were obtained as described previously with modifications.[45] Promastigotes were grown in Schneider’s Drosophila medium (SIGMA) containing 10% heat-inactivated fetal calf serum (FCS)(GIBCO-BRL) and 2% gentamicin (50 mg/L)(Sigma) in 25 cm^2 flasks at 22 °C. After 4–5 days, the parasites were adjusted to 1 × 10^6 parasites/mL in axenic medium MAA/20 consisting of modified medium 199 (Gibco BRL) with Hanks’ salts supplemented with 0.5% tryptic soy broth (Sigma), 0.01 mM bathocuproine disulfonic acid, 3 mM L-cysteine, 15 mM D-glucose, 5 mM L-glutamine, 4 mM NaHCO3, 0.023 mM bovine hemin, and 25 mM HEPES to a final pH of 6.5 and supplemented with 20% pretested FCS, and axenic amastigotes were obtained by shifting the incubation conditions: 198 μL of suspension was seeded in triplicate in 96-well flat bottom microplates and incubated at 37 °C, 5% CO2 for 48 h in order to allow the axenization. The amastigote cells were visualized under the light microscope to confirm transformation. Then, 2 μL of the selected compounds with varying concentrations were added: 100, 50, 25, 12.5, 6.25, 3.12, 1.56, 0.8, 0.4, 0.2, 0.1, 0.05 μM. […] Each experiment was conducted in triplicate for each drug concentration, and three independent experiments were performed. To estimate the 50% inhibitory concentration (IC50), the (3-[4.5-dimethylthiazol-2-yl]-2.5-diphenyltetrazolium bromide) (MTT) micromethod was used throughout the experiments with modification. After 72 h of incubation, 30 μL of MTT was added to each well, and the plates were further incubated for 3 h. The absorbance at 550 nm was measured with a 96-well scanner. Antileishmanial activity was expressed as the percentage of inhibition in the number of live parasites compared to that in the control (nontreated parasites). % inhibition was calculated as follows: % growth inhibition = [(absorb cell with drug × 100)/absorb cell control] – 100. Results were analyzed by GraphPad Prism 5.0, dose–response curves were obtained and IC50 deduced (GraphPad Software Inc., San Diego, USA).

[2] = tested on: human THP-1-derived macrophages; test: Cytotoxicity assay on human THP-1-derived macrophages (MTT); type: cell-based; settings: for CC50: 72 h, MTT, read-out: human THP-1-derived macrophage CC50 ± SE (95% CI)
Experimental: (§1) To assess the cytotoxicity of compounds on mammalian macrophages, we tested all the compounds against both human leukemia monocyte cell line (THP-1 cells, ATCC) differentiated into macrophages by treatment with 40 ng/mL of phorbol myristate acetate (PMA; Sigma) for 48 h and peritoneal exudate macrophages harvested from Balb/c mice. […] Cell viability was evaluated using the MTT assay, and the concentration of the compound that produced a 50% reduction of cell viability in treated culture cells with respect to untreated ones (CC50) was determined by GraphPad Prism 5.0 (GraphPad Software Inc., San Diego, USA). […] The selectivity index for each compound was calculated as the ratio of cytotoxicity (CC50) in macrophages cells to activity (IC50) against Leishmania axenic amastigotes. The experiments were performed in triplicate, and two independent experiments were conducted.

[3] = tested on: primary murine macrophages; test: Cytotoxicity assay on primary murine macrophages (MTT); type: cell-based, Balb/c mice; settings: Balb/c peritoneal macrophages, 72 h, read-out: primary murine macrophage CC50 ± SE (95% CI)
Experimental: as §1

[4] = target: T1, Leishmania infantum TR (LiTR) (Leishmania infantum, UniProt A4HSF7); test: LiTR enzymatic inhibition assay (NADPH oxidation at 340 nm); type: biochemical; settings: for LiTR residual activity % / remaining activity at 100 µM / remaining activity at 10 µM: mean ± SD, n = 3; for remaining activity at 100 µM / remaining activity at 10 µM: read-out: LiTR residual activity %; for IC50: 50 nM LiTR, 150 μM trypanothione, 100 μM NADPH, 25 °C
T1 construct: The TbTR and LiTR genes were subcloned in a pET28b vector; 6-His (cleaved yes); made in house; host or cells: E. coli BL21(DE3), pET28b
Experimental: (§2) Enzymatic inhibition assays were performed in 50 mM HEPES pH 7.4, 40 mM NaCl at 25 °C using a JASCO V650 spectrophotometer equipped with a JASCO EHC 716 Peltier element to ensure controlled temperature. The first experiment was carried out using 50 nM LiTR, 10 or 100 μM compound to be tested, 150 μM trypanothione (trypanothione disulfide purchased from Bachem), and 100 μM NADPH (tetrasodium salt, purchased from Calbiochem). The best inhibitor candidates were then tested at concentrations ranging from 1 nM to 250 μM to determine the IC50. Assays were initiated upon addition of 100 μM NADPH to 50 nM LiTR or hGR (human glutathione reductase purchased from Sigma-Aldrich) in the presence of different concentration of compounds and 150 μM trypanothione. For both experiments, the oxidation of NADPH was followed as a decrease in absorbance at 340 nm. For each concentration of compound, the initial velocity of the NADPH oxidation was used to determine the percentage of LiTR activity with respect to that in the absence of any compound. The IC50 was determined upon fitting the residual activity of TR as a dose–response logistic equation defined as ymin + (ymax – ymin)/(1 + (x/IC50)^slope). […] The Ki was determined graphically upon linear fitting of data points for each trypanothione concentration. Data analysis was performed with QtiPlot 0.9.8.9 svn 2288, and graphs were made with Matplotlib.
(§3) Figure S3. Inhibition assay of LiTR (red) and hGR (grey) with compounds 5-6, 9-10 and 14.
(§4) Enzymatic assays were carried out at 25°C on a JASCO V650 spectrophotometer equipped with a JASCO EHC716 Peltier unit. Compound concentrations used during the experiments range from 1 […]
(§5) higher than 30 µM and 20 µM, respectively. Briefly, 50 nM LiTR or hGR (Sigma Aldrich) were mixed in 50 mM HEPES pH 7.4, 40 mM NaCl with each compound and 150 µM trypanothione or glutathione. After 3-minute incubation at 25°C, the measurement was initiated upon addition of 100 µM NADPH. The oxidation of NADPH was followed as a decrease in absorbance at 340 nm. Each initial velocity of LiTR enzymatic reaction with the compounds was expressed as a percentage of residual activity with respect to that in the absence of compound. Each data point is the mean of two measurements. The IC50 was determined upon fitting the data as a dose response logistic equation defined by the Kaleidagraph software as ymin+(ymax-ymin)/(1+(x/IC50)^slope).
(§6) (1 picture or pasted object on this page, not shown here)

[5] = Cytotoxicity assay on human THP-1-derived macrophages (MTT); type: cell-based; settings: human, THP-1 cells differentiated into macrophages with PMA, 72 h, MTT; read-out: human THP-1-derived macrophage CC50 ± SE (95% CI)
Experimental: as §1

[6] = Cytotoxicity assay on primary murine macrophages (MTT); type: cell-based, Balb/c mice; settings: Balb/c, mouse, primary peritoneal exudate macrophages, read-out: primary murine macrophage CC50 ± SE (95% CI)
Experimental: as §1

[7] = Solubility observed in the enzymatic assay; type: physicochemical; settings: no reliable data at concentrations higher than 30 µM (5) and 20 µM (6)
Experimental: as §3, §4, §5, §6

[8] = target: T2, hGR (human glutathione reductase) (Homo sapiens, UniProt P00390); test: hGR enzymatic inhibition assay (NADPH oxidation at 340 nm); type: biochemical; settings: for IC50: 50 nM hGR, 100 μM NADPH, 25 °C
T2 construct: purchased Sigma-Aldrich
T2 sequence (P00390 44-522): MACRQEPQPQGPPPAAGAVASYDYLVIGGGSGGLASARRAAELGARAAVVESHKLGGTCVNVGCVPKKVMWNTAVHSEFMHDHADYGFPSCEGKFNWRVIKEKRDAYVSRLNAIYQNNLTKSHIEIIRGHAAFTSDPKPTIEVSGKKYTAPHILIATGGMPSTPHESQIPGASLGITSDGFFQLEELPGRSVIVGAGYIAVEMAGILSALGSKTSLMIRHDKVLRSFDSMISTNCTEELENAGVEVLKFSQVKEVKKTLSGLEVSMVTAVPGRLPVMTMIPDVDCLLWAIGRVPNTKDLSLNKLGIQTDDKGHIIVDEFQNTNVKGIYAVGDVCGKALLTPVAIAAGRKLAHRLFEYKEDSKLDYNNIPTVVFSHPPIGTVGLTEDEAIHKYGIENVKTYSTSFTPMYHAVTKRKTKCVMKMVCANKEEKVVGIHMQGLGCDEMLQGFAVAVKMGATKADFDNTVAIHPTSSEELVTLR
Experimental: as §2, §3, §4, §5, §6

T1 sequence (A4HSF7 1-491): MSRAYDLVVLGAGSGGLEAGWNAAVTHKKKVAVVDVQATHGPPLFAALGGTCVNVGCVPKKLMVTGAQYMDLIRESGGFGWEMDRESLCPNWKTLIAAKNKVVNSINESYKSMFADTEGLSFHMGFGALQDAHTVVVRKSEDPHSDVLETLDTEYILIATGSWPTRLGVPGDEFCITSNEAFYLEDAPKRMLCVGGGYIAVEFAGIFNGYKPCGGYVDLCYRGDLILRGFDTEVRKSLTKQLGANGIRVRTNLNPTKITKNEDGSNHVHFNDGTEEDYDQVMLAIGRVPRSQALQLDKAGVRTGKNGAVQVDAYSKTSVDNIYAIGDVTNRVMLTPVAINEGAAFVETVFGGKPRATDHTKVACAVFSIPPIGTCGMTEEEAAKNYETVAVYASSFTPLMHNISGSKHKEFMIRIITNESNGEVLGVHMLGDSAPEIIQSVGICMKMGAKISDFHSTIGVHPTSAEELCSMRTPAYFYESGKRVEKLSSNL

Compound | EC50 [1] [µM] | SI = human THP-1-derived macrophage CC50/axenic amastigote EC50 [2] | CC50 [2] [µM] | CC50 [3] [µM] | LiTR residual activity % ([4]; compound at 10 μM) | EC50 ([1]; Leishmania infantum) [µM] | CC50 at 72 h [5] [µM] | CC50 at 72 h [6] [µM] | remaining activity at 100 µM ([4]; compound at 100 μM) [%] | IC50 [4] [µM] | decrease in TR activity ([4]; compound at 100 μM) [%] | LiTR residual activity % ([4]; compound at 100 μM, 100 µM) | solubility in the enzymatic assay [7] | IC50 [8] [µM] | SI (ratio of GR IC50/TR IC50) ([8]; hGR versus LiTR) | gain in LiTR IC50 with respect to 5 ([4]; compared to compound 5 (IC50 54.6 μM)) | remaining activity at 10 µM ([4]; compound at 10 μM) [%]
4-(3,4-Dichlorobenzyl)-N-(4-fluorophenyl)-N-((5-(phenethylcarbamoyl)furan-2-yl)methyl)piperazine-1-carboxamide [Compound 8] | 10.3 ± 0.9 | 1.1 | 11.7 ± 1.6 | 14.4 ± 1.6 | 94.1 ± 4.9 @10 μM % | – | – | – | – | – | – | – | – | – | – | – | –
O=C(Nc1ccc(F)cc1)N1CCN(CCCc2ccccc2)CC1 [Compound 4, N-(4-Fluorophenyl)-4-(3-phenylpropyl)piperazine-1-carboxamide] | – | 0.8 | – | – | – | 11.5 ± 2.1 | 9.6 ± 0.71 | 12.9 ± 0.9 | 96.7 ± 6.1 | – | – | – | – | – | – | – | –
O=C(NCCc1ccc(F)cc1)c1ccc(CN(C(=O)N2CCN(CCCc3ccccc3)CC2)c2ccc(F)cc2)o1 [Compound 5, N-((5-((4-Fluorophenethyl)carbamoyl)furan-2-yl)methyl)-N-(4-fluorophenyl)-4-(3-phenylpropyl)piperazine-1-carboxamide] | 12 ± 1.7 | 0.8 | 6.5 ± 0.6 | 9.1 ± 0.9 | – | 11.5 ± 2.1 | 9.6 ± 0.71 | 12.9 ± 0.9 | 64.9 | 54.6 ± 20.9 | 35.1 | 65.4 ± 3.0 @100 μM % | low solubility | 163 ± 58.8 | 3 | – | –
O=C(NCCc1ccc(F)cc1)c1ccc(CN(C(=O)N2CCN(CCCN3c4ccccc4Sc4ccc(Cl)cc43)CC2)c2ccc(F)cc2)o1 [Compound 6, 4-(3-(2-Chloro-10H-phenothiazin-10-yl)propyl)-N-((5-((4-fluorophenethyl)carbamoyl)furan-2-yl)methyl)-N-(4-fluorophenyl)piperazine-1-carboxamide] | 13 ± 1.5 | – | – | – | – | 12 ± 1.7 | – | – | – | 21.7 ± 4.4 | – | – | low solubility | 9.6 ± 1.4 | – | more than 2 fold | 46.9 ± 18
O=C(O)c1ccc(N(Cc2ccc(C(=O)NCCc3ccc(F)cc3)o2)C(=O)N2CCN(CCCc3ccccc3)CC2)cc1 [Compound 11, 4-(N-((5-((4-Fluorophenethyl)carbamoyl)furan-2-yl)methyl)-4-(3-phenylpropyl)piperazine-1-carboxamido)benzoic Acid] | – | >2 | – | – | – | 25.6 ± 7.4 | > 50 | > 50 | – | – | – | – | – | – | – | – | 74.5 ± 9.3
O=C(NCCc1ccc(F)cc1)c1ccc(CNC(=O)N2CCN(CCCc3ccccc3)CC2)o1 [Compound 12, N-((5-((4-Fluorophenethyl)carbamoyl)furan-2-yl)methyl)-4-(3-phenylpropyl)piperazine-1-carboxamide] | – | 2.7 | – | – | – | 14.1 ± 1.3 | 37.6 ± 13.8 | 26.7 ± 4.5 | – | – | – | – | – | – | – | – | 74.6 ± 9.3
O=C(NCCc1ccc(F)cc1)c1ccc(CNC(=O)N2CCN(Cc3ccc(Cl)c(Cl)c3)CC2)o1 [Compound 13, 4-(3,4-Dichlorobenzyl)-N-((5-((4-fluorophenethyl)carbamoyl)furan-2-yl)methyl)piperazine-1-carboxamide] | – | 1.9 | – | – | – | 11.2 ± 0.7 | 21 ± 3.1 | 12.6 ± 0.9 | – | – | – | – | – | – | – | – | 89.2 ± 4.9
N-((5-((4-Fluorophenethyl)carbamoyl)furan-2-yl)methyl)-N-(4-fluorophenyl)-4-(3-(2-(trifluoromethyl)-10H-phenothiazin-10-yl)propyl)piperazine-1-carboxamide [Compound 7] | 13 ± 1.5 | 1.8 | 23.4 ± 4.6 | – | 70.8 ± 5.9 @10 μM % | – | – | – | – | – | – | – | – | – | – | – | –
